Experimental findings from patent US20170037425A1, “METHOD FOR IMPROVING PLANT TRAIT” (SHANGHAI INSTITUTES FOR BIOLOGICAL SCIENCES, CHINESE …, priority 2012, published 2017) are described below.

In assay [1] the test system is Brassica. The assay is described as follows: Chlorophyll and pigment contents of transgenic Brassica leaves. The assay is classed as in vivo, Brassica napus L. As for the experimental part:
Chlorophylls and pigments were extracted from Brassica leaves with 80% acetone. Chlorophyll contents were measured as described by Arnon D J 1949, Plant Physiol 24:1-15. Carotenoid contents were measured as described by Niyogi et al., (1997), Proc. Natl. Acad. Sci. U.S.A. 94, 14162-14167.

A short description of assay [2]: Electron donation by pre-illuminated LEAT protein (NAD+/NADP+ reduction). The format is biochemical. The method, then:
FIG. 1. The effects of light on NAD^+ or NAPD^+ reduction by YFP.
It was reported that proteins such as GFP can function as electron donor to reduce the oxidized small compounds such as NAD^+, potassium ferricyanide, and some proteins such as cytochrome c, and FAD-containing proteins (Bogdanov A. M. et al, 2009, Nature Chemical Biology. 5:459-461), The invertors used E. coli to express and purify recombinant proteins. […] Quinone reduction under light was analyzed by monitoring the decrease of absorption at 436 nm.

Assay [3] has as its system Brassica. Kind of assay: Stomatal conductance and intercellular CO2 concentration of transgenic Brassica. The assay is classed as in vivo, Brassica napus L. The method, then:
Gas exchange was measured using photosynthetic infrared gas analysis system (LI-6400, Li-Cor Inc, Lincoln, Nebr., USA). The net photosynthetic rate (Pn) and stomatal conductance (Gs) was measured. Sunlight and artificial light were used as artificial light sources for measurement. The ambient CO2 during the measurements was controlled at 400 μmol mol^−1. The ambient temperature was controlled at the temperature for plant growth. Six leaves were measured for each line of plant.

Consider “mCherry: red fluorescent protein, amino acid sequence SEQ ID NO: 2”, for which, in assay [1], the “accessory photosynthetic pigments (carotenoids) content” value was “increased”; the “chlorophyll content and ratio of Chl a/b” value is reported as “did not change”. The “function as electron donor under light” value in assay [2] is recorded as “cannot continuously provide electrons under light”. Further, in assay [3] (transgenic Brassica), the “stomatal conductance (Gs) vs WT” value was “increased”. For the same substance, the “intercellular CO2 concentration (Ci)” value in assay [3] (transgenic Brassica leaves) is listed as “did not lead to the decrease”.
